Test system: C57BL/6 responder splenocytes with irradiated BALB/c stimulatory cells
Test: Allo-MLR lymphocyte proliferation assay (3H-thymidine) with AMPs
Type: cell-based, mouse
Settings: 20 μM indomethacin alone
Description: FIG. 2. […] (A) Naive C57BL/6 splenocytes (as responders cells) were cultured 1:1 with irradiated (3 Gy) naïve BALB/c stimulatory cells. […] Cell proliferation was analyzed by 3H-thymidine incorporation during the last 18 h of a 5 day culture. Results are expressed as the mean percent alloproliferation inhibition of quadruplicate cultures. Data are representative of two independent experiments. (B) Cytokine analysis of 48 h culture supernatants obtained from mixed lymphocyte reaction assays. Data are presented as means±SD (n=3; P<0.05). (C) Representative flow cytometric analysis of splenic Tregs following 5 days of alto-MLR culture in the absence and presence of AMP co-culture. […] Quadrants are set according to isotype controls. Results shown are representative of three separate experiments. FIG. 3. […] Results are expressed as the mean value±SD. […] Bars indicate mean fold increase±SD mRNA expression level of the indicated gene relative the housekeeping gene GAPDH and normalized to untreated AMP cutlures. (D) Supernatants from allo-MLR/AMP co-cultures inhibit MLR lymphocyte proliferation. […] Cell proliferation was analyzed by ^3H-thymidine incorporation during the last 18 h of a 5 day culture. Results are expressed as the mean percent alloproliferation inhibition of quadruplicate cultures. […]

In the case of `COc1ccc2c(c1)c(CC(=O)O)c(C)n2C(=O)c1ccc(Cl)cc1` [indomethacin], the “allo T-cell proliferation” value is reported as “significantly inhibit”.

— patent US9457052B2, “Allograft tolerance induction” (The United States of America as Represented by the …, priority 2013, dated 2016)
